Experimental data published in ChEMBL document CHEMBL5465560, “Selectivity Literature for EUbOPEN Chemogenomic Library” (2024).

Assays:
[1] = molecular target: T1, Serine/threonine-protein kinase Nek3 (Homo sapiens) (UniProt P51956); assay: Selectivity interaction (KinomeScan (DiscoverX)) EUB0000655a NEK3; settings: at 10 µM
T1 sequence (whole entry): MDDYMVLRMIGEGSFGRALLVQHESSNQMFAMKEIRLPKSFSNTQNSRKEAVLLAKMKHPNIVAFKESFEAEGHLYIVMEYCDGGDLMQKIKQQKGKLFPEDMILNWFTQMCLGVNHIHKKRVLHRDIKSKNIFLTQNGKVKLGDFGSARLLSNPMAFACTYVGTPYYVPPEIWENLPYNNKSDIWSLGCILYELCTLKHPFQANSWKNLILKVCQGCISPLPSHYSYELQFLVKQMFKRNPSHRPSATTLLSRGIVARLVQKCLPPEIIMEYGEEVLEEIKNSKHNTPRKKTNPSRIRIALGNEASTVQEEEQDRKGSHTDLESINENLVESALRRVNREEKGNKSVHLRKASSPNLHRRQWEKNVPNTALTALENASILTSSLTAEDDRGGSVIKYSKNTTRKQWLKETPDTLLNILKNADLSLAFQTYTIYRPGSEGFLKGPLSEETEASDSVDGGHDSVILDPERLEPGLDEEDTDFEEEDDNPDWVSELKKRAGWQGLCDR

[2] = molecular target: T2, Serine/threonine-protein kinase TAO1 (Homo sapiens) (UniProt Q7L7X3); settings: at 10 µM
T2 sequence (whole entry): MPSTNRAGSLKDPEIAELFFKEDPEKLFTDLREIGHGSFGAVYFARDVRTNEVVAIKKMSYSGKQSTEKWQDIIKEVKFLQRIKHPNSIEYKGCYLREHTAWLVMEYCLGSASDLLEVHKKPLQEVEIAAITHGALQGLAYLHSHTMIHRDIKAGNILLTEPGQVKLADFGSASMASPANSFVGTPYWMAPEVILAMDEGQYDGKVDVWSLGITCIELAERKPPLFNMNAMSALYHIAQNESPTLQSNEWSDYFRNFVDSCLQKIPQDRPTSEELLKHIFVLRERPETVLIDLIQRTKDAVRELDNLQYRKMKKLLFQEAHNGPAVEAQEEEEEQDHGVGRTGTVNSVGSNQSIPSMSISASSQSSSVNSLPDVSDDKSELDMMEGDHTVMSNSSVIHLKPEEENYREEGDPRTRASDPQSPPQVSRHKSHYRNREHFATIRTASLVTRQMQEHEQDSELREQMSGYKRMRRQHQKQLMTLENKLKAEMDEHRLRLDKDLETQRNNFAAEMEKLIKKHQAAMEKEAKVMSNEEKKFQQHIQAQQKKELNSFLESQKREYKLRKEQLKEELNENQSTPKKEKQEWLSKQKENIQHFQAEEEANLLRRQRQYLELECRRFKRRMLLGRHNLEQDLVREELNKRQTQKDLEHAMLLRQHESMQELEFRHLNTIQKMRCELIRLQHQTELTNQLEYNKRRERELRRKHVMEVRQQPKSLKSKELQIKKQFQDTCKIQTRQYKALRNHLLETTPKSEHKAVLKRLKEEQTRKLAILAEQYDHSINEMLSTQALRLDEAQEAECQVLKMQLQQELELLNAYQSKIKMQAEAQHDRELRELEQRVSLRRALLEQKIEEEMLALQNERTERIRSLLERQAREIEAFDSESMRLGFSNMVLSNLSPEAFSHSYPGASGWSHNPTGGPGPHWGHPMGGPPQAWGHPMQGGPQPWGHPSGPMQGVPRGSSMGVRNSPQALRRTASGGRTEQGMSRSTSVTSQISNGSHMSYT

[3] = molecular target: T3, Ephrin type-B receptor 1 (Homo sapiens) (UniProt P54762); assay: Selectivity interaction (KinomeScan (DiscoverX)) EUB0001049a EPHB1; settings: at 1 µM
T3 sequence (whole entry): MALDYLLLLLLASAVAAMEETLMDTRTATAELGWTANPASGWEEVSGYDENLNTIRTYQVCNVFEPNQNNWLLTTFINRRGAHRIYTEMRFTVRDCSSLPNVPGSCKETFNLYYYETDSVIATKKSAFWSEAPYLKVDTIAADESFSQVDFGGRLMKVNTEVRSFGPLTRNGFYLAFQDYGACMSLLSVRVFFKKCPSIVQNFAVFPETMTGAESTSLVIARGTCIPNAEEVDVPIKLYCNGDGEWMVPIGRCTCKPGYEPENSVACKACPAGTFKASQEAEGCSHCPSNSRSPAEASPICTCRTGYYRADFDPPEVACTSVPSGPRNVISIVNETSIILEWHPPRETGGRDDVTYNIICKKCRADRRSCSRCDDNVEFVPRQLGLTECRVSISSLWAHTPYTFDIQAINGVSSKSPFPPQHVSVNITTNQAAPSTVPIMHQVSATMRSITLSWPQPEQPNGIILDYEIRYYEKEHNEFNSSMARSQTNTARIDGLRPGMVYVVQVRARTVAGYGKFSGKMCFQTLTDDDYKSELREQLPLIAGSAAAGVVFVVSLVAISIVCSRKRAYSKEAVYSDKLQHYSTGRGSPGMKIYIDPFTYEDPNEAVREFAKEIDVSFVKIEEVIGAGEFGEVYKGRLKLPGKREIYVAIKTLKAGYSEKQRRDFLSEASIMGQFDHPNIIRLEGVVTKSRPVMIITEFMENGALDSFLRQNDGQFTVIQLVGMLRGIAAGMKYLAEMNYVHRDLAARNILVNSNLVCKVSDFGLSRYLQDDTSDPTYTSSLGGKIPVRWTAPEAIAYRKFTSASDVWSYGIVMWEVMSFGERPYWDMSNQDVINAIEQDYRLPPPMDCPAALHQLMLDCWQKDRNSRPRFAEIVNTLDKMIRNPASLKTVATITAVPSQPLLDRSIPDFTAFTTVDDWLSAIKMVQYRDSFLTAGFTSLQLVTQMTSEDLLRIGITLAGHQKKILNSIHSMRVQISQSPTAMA

[4] = molecular target: Ribosomal protein S6 kinase alpha-2 (Homo sapiens) (UniProt Q15349); assay: Selectivity interaction (Ambit KINOMEscan and KiNATiv profiling in Jurkat cells) EUB0000090b RPS6KA2; type: cell-based; settings: at 1 µM
[5] = molecular target: DNA-dependent protein kinase catalytic subunit (Homo sapiens) (UniProt P78527); assay: Selectivity interaction (ActivX KiNativ screen (ex vivo kinase selectivity in human PBMCs)) EUB0001619a PRKDC; type: cell-based; settings: PBMC, at 1 µM
Chain of DNA-dependent protein kinase catalytic subunit (Homo sapiens) (P78527 whole entry): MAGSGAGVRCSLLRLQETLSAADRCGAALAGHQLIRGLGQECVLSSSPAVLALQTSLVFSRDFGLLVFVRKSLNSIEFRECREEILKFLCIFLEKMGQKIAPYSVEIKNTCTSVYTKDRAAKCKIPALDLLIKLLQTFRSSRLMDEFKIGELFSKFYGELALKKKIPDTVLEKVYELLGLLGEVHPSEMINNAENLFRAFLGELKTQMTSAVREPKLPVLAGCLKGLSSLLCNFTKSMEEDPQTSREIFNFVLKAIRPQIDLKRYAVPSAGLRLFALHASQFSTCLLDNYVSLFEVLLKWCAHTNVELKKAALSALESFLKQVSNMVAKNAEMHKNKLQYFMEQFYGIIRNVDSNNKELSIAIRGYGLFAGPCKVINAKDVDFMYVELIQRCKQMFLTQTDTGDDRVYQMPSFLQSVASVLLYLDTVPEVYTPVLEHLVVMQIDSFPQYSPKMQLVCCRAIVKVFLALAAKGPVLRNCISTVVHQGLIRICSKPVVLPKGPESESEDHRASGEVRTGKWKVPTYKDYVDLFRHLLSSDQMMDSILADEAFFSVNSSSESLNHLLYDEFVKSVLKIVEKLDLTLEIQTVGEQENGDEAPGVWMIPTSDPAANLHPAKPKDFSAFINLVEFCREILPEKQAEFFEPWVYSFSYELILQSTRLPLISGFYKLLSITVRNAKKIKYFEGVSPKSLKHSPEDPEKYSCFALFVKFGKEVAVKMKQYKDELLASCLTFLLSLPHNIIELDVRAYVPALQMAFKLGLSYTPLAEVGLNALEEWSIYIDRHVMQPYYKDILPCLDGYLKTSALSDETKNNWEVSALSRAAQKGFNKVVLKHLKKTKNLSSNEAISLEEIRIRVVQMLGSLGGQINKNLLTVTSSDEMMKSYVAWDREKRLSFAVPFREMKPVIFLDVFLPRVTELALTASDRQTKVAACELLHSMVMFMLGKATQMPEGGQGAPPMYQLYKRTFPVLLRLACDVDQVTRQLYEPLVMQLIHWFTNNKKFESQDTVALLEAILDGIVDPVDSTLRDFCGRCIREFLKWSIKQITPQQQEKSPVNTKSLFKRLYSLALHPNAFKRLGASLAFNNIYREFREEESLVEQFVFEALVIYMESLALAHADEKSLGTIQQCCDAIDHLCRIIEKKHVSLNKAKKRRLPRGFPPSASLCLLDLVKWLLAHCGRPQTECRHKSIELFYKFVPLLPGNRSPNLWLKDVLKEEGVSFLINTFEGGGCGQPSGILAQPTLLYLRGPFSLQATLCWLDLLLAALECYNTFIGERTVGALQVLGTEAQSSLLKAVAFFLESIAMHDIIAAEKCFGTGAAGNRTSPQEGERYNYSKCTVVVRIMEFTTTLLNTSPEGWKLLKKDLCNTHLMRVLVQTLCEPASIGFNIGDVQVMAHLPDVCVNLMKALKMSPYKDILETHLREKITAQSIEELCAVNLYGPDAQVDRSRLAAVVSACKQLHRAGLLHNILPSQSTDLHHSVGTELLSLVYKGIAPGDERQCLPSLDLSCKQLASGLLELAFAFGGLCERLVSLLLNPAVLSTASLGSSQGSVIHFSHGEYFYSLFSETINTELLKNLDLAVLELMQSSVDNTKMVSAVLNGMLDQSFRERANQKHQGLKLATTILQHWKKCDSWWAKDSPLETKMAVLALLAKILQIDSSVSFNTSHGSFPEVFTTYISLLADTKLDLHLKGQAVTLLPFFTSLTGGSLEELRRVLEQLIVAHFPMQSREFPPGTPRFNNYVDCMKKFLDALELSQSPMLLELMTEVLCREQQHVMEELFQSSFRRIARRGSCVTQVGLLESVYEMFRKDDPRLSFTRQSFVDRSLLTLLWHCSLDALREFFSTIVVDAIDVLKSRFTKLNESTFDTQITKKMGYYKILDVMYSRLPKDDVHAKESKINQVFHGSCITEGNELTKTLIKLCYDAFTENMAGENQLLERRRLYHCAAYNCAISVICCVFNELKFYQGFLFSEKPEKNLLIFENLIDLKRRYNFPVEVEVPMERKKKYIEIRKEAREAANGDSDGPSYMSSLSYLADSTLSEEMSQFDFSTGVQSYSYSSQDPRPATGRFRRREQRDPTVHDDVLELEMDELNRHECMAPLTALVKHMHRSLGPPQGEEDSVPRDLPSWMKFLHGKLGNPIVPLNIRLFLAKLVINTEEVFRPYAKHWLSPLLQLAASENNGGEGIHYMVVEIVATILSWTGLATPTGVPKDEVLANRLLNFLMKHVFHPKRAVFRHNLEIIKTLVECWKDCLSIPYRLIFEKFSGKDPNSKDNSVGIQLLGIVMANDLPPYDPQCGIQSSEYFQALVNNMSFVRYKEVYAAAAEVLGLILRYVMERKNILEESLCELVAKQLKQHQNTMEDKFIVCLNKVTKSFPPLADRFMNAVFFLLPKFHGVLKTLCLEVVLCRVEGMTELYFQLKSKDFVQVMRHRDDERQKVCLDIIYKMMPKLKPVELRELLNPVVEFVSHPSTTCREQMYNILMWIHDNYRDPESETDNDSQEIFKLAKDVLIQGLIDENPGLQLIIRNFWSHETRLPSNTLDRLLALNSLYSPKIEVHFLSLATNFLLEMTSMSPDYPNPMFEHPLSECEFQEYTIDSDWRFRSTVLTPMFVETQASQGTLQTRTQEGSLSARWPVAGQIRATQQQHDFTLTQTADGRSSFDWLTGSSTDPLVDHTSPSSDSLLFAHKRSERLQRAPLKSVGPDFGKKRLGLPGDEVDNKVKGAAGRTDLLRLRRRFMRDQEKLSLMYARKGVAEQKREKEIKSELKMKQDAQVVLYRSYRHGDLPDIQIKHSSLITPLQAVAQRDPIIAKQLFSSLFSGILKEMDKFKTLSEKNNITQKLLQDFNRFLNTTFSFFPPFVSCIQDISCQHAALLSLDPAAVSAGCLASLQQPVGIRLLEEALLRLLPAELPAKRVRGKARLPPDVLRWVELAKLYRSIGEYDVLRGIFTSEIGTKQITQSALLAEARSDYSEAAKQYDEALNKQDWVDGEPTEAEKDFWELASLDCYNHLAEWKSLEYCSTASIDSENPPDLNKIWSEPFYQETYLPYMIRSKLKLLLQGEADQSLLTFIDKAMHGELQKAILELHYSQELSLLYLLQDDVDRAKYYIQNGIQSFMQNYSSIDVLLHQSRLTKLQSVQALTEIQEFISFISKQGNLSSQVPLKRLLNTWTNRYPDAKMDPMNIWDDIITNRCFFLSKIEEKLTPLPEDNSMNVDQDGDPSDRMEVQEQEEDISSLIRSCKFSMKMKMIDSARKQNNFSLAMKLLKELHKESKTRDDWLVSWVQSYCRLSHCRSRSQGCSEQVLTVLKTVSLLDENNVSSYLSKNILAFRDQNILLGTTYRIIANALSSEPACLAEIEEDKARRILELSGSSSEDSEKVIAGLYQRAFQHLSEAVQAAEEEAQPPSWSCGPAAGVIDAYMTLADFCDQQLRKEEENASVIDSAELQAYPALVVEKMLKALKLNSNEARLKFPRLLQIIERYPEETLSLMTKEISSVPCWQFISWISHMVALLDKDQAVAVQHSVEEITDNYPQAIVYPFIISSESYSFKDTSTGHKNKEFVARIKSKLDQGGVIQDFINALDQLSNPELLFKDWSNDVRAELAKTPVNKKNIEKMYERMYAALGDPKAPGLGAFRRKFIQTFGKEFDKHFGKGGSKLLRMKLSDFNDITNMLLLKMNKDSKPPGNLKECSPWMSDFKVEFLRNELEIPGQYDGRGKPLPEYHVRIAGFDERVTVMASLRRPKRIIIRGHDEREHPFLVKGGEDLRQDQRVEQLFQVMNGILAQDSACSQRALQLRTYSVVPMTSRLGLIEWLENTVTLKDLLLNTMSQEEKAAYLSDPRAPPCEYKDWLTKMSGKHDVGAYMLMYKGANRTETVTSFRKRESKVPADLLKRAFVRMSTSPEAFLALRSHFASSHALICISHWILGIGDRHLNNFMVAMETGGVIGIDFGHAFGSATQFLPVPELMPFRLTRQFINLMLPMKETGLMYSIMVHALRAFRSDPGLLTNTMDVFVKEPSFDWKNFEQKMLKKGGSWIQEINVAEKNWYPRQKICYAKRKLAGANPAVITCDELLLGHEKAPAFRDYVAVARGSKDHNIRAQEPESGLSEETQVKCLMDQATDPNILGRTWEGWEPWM

Chain of Ribosomal protein S6 kinase alpha-2 (Homo sapiens) (Q15349 whole entry): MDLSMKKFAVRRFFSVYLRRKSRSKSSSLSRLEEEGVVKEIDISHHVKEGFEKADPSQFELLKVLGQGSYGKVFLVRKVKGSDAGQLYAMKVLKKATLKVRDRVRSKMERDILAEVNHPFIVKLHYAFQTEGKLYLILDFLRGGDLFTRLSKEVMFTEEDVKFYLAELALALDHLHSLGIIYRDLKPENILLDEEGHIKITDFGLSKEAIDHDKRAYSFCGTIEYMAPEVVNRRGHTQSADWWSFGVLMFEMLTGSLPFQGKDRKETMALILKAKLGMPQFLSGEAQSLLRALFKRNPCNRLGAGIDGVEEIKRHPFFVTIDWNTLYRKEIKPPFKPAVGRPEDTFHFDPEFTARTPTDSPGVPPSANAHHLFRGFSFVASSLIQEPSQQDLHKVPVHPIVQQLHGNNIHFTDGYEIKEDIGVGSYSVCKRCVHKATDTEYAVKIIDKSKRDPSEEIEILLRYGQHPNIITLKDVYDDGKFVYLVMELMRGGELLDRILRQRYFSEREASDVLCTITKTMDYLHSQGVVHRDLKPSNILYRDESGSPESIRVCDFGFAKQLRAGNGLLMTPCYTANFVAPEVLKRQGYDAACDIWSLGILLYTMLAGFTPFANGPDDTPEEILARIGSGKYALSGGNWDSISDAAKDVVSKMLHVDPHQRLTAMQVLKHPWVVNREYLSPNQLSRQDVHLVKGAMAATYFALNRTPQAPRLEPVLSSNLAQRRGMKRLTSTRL

In the case of `CN(C)CCOc1ccc(-c2nc(-c3ccncc3)c(-c3ccc4c(c3)CC/C4=N\O)[nH]2)cc1`, the % of control [1] is reported as 71%.
In the case of `Cc1cc([C@@H](C)Nc2ccccc2C(=O)O)c2nc(N3CCOCC3)cc(=O)n2c1` [AZD-6482], the % of control [2] is reported as 59%.
Compound `COc1cc(Nc2nc(C)cc(-c3cnn4nc(OC)ccc34)n2)cc(C(F)(F)F)c1` has a % of control [3] of 85%.
In the case of `CN(C)C/C=C/C(=O)Nc1ccc(C(=O)N2CCCC(Nc3ncc(Cl)c(-c4c[nH]c5ccccc45)n3)C2)cc1` (stereo not given), the % of control [4] is reported as 88%.
With `N#Cc1cccc(-c2c[nH]c3ncnc(N4CCOCC4)c23)c1` the % of inhibition [5] was -2%.
